Counter-ions that a name gives are not always drawn. Like-named read-outs stand apart in the source and are kept apart here.
Assays:
EGFR = target: T1, EGFR (Homo sapiens, UniProt P00533); assay: EGFR in-cell Western (ICW) screening protocol (EGFR inhibition assay); assay type: cell-based; set-up: ICW 1 / ICW 2 / ICW Avg: unit not given here; settings: for ICW assay: Table 10; for ICW Avg / ICW 1 / ICW 2: ICW assay; for ICW Avg: average of runs 1 and 2; for ICW 1: run 1; for ICW 2: run 2
T1 construct: host or cells: A431
T1 sequence (P00533 25-1210): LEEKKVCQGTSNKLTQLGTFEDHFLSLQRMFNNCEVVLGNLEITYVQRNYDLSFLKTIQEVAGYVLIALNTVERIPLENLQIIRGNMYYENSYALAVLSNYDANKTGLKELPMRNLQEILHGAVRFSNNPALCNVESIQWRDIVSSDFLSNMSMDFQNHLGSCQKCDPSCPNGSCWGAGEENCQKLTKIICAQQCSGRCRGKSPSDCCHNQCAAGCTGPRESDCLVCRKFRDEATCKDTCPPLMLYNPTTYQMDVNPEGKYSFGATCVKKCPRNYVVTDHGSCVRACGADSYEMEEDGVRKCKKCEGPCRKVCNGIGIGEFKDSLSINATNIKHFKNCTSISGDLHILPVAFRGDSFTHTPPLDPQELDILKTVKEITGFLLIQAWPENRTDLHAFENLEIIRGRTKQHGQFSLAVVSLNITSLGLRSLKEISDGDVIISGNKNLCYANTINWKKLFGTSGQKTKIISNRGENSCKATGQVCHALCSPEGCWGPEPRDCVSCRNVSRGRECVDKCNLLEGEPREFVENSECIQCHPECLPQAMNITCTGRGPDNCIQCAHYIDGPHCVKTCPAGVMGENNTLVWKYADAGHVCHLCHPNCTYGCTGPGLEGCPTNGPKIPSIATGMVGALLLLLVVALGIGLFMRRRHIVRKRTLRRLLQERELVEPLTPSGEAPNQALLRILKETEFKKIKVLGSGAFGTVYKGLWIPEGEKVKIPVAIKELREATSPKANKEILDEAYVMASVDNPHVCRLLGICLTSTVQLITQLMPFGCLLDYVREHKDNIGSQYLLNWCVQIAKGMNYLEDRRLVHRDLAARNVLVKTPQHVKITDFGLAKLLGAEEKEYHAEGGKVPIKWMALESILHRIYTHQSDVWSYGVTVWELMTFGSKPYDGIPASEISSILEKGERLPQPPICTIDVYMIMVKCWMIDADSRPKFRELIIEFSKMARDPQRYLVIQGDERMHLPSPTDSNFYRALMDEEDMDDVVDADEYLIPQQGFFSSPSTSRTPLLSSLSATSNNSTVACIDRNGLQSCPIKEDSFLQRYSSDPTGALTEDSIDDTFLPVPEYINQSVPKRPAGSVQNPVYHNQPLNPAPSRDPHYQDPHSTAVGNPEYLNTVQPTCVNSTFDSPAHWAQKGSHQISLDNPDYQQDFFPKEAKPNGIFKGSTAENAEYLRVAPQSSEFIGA
Summary of the method: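 Serum-starved A431 cells (2 h) were pretreated with compound for 4 h at 37° C, then stimulated with EGF (10 ng/ml final, or 6.6 or 12.5 ng/ml in some runs) for 10 min. After formaldehyde fixation, phospho-EGFR (Tyr1173, or Tyr1045 in some runs) and total EGFR were detected by in-cell Western immunostaining.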

[1] = tested on: epithelial carcinoma A431 cell line; assay: MTT Cell Proliferation Assay, A431 cells; assay type: cell-based; settings: for MTT Assay IC50(A431/MDBK): ratio in parentheses: ratio MDBK IC50 / A431 IC50 (selectivity)
Summary of the method: (§1)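 Viability was measured by mitochondrial MTT reduction after cells were exposed to compound for 3 days in reduced-serum medium. Inhibition was calculated per plate against 0.5% DMSO controls.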

MDBK line = assay: MTT Cell Proliferation Assay, MDBK cells; assay type: cell-based, bovine
Summary of the method: as §1

[2] = % Inhibition of EGF dependent EGFR phosphorylation in A431 cells, compound 125 μM in assay
[3] = Homo sapiens, A-431, 72 h, Table 10, first of x/y(ratio): A431, three day treatment, unit not printed (doses in μM), read-out: MTT assay (first value)
[4] = Bos taurus, MDBK, 72 h, Table 10, second of x/y(ratio): MDBK, three day treatment, unit not printed (doses in μM), read-out: MTT assay (second value)
[5] = Homo sapiens, A-431, A431 cells, first value of cell, read-out: MTT Assay IC50(A431/MDBK): A431
[6] = Bos taurus, MDBK, MDBK cells, second value of cell, read-out: MTT Assay IC50(A431/MDBK): MDBK
[7] = Homo sapiens, A-431, first value of 'a/b (c)', taken as A431 cells, read-out: MTT Screen, first value of cell
[8] = Bos taurus, MDBK, second value of 'a/b (c)', taken as MDBK cells, read-out: MTT Screen, second value of cell
[9] = A431 cells, first value of cell, read-out: MTT Assay IC50(A431/MDBK): A431

Structure (SMILES)	ICW Avg (EGFR)	ICW 1 (EGFR)	ICW 2 (EGFR)	IC50 [1, 5] [µM]	MTT Assay IC50(A431/MDBK): ratio in parentheses [1]	IC50 (MDBK line; [6]) [µM]	further results
O=S(=O)(Nc1cc(Cl)cc(Cl)c1)c1ccc(NC(=S)Nc2cccc(C(F)(F)F)c2)cc1 [AD4-12509]							ICW assay (EGFR; [2]): 140.975; IC50 [1, 3]: 5.49 µM; IC50 (MDBK line; [4]): 5.24 µM
CCc1ccc(NC(=S)Nc2ccc(S(=O)(=O)Nc3ccc(Cl)c(Cl)c3)cc2)cc1 [AD4-12430]							ICW assay (EGFR; [2]): 82.0877; IC50 [1, 3]: 4.07 µM; IC50 (MDBK line; [4]): 5.54 µM
Cc1nc(Nc2ncc3c(n2)CC(c2ccco2)CC3=O)nc2ccccc12 (centres unmarked) [11679 + TFA]	25.83	31.02	20.64	12.6	0.70	8.73	
COc1ccc(NS(=O)(=O)c2ccc(NC(=S)NC(=O)C3CCCC3)cc2)cc1 [AD4-12119]							ICW Screen (ICW Inhibition) (EGFR): 55.94; IC50 [1, 7]: 18.6 µM; IC50 (MDBK line; [8]): 14.6 µM
CCCc1c[nH]c(Nc2nc(-c3ccccc3)c3cc(Cl)ccc3n2)nc1=O [12660 + TFA]	61.63	49.87	73.40	41.5	0.99	41.1	
COc1ccc(NC(=S)Nc2ccc(S(=O)(=O)Nc3ccc(Cl)c(Cl)c3)cc2)cc1OC [AD4-11432]							ICW assay (EGFR; [2]): 47.0006; IC50 ([1]; Table 10, first of x/y(ratio): A431, three day treatment, unit not printed (doses in μM), read-out: MTT assay (first value)): 7.8 µM; IC50 (MDBK line; Table 10, second of x/y(ratio): MDBK, three day treatment, unit not printed (doses in μM), read-out: MTT assay (second value)): 7.82 µM
O=C(NC(=S)Nc1ccc(S(=O)(=O)Nc2ccccc2)cc1)c1ccco1 [AD4-10705]							ICW Screen (ICW Inhibition) (EGFR): 47.764; IC50 [1, 7]: 23.1 µM; IC50 (MDBK line; [8]): 25.2 µM
CC(C)C(=O)NC(=S)Nc1ccc(S(=O)(=O)NCCc2ccccc2)cc1 [AD4-10611]							ICW Screen (ICW Inhibition) (EGFR): 38.285; IC50 [1, 7]: 30.9 µM; IC50 (MDBK line; [8]): 20 µM
COc1cccc2c(C)nc(Nc3nc4c(c(=O)[nH]3)CCCC4)nc12 [11484 + TFA]	70.65	67.84	73.46	11.3	0.86	9.72	
CCCc1cc(=O)[nH]c(Nc2nc(C)c3cc(C)c(C)cc3n2)n1 [12654 + TFA]	36.07	37.92	34.22		0.79	12.6	IC50 [1, 9]: 16 µM
Cc1nc(Nc2nc(=O)cc(CSc3ccc(Cl)cc3)[nH]2)nc2ccccc12 [11445 + TFA]	60.28	59.54	61.02		4.70	45.1	IC50 [1, 9]: 9.61 µM
O=C(NC(=S)Nc1ccc(S(=O)(=O)Nc2ccccc2)cc1)C1CC1 [AD4-11413]							ICW Screen (ICW Inhibition) (EGFR): 46.23; IC50 ([1]; first value of 'a/b (c)', taken as A431 cells, read-out: MTT Screen, first value of cell): 31.4 µM; IC50 (MDBK line; second value of 'a/b (c)', taken as MDBK cells, read-out: MTT Screen, second value of cell): 29.8 µM
COc1ccc(NC(=S)Nc2ccc(S(=O)(=O)Nc3ccccc3C)cc2)cc1OC [AD4-12527]							ICW assay (EGFR; [2]): 31.9587; IC50 [1, 3]: 26.9 µM; IC50 (MDBK line; [4]): 20 µM
Cc1ccc(NS(=O)(=O)c2ccc(NC(=S)NC(=O)C(C)C)cc2)c(C)c1 [AD4-12062]							ICW Screen (ICW Inhibition) (EGFR): 34.268; IC50 [1, 7]: 64.5 µM; IC50 (MDBK line; [8]): 18.8 µM
CCOc1ccc(NC(=S)Nc2ccc(S(=O)(=O)Nc3cc(Cl)cc(Cl)c3)cc2)cc1 [AD4-12529]							ICW assay (EGFR; [2]): 63.9249; IC50 [1, 3]: 6.35 µM; IC50 (MDBK line; [4]): 6.47 µM
O=C(COc1ccc(Cl)cc1Cl)NC(=S)Nc1ccc(S(=O)(=O)NC2CCCCC2)cc1 [AD4-12075]							ICW Screen (ICW Inhibition) (EGFR): 25.956; IC50 [1, 7]: 19.2 µM; IC50 (MDBK line; [8]): 40.1 µM
COc1ccc(NS(=O)(=O)c2ccc(NC(=S)Nc3ccccc3C(F)(F)F)cc2)cc1 [AD4-12577]							ICW assay (EGFR; [2]): 29.4151; IC50 [1, 3]: 6.62 µM; IC50 (MDBK line; [4]): 5.92 µM
CCOC(=O)CCC(=O)NC(=S)Nc1ccc(S(=O)(=O)Nc2cc(OC)nc(OC)n2)cc1 [AD4-11980]							ICW Screen (ICW Inhibition) (EGFR): 25.235; IC50 [1, 7]: 49.8 µM; IC50 (MDBK line; [8]): 24.4 µM
CCc1nnc(NS(=O)(=O)c2ccc(NC(=S)NC(=O)/C=C/c3ccccc3)cc2)s1 [AD4-11367]							ICW Screen (ICW Inhibition) (EGFR): 46.872; IC50 [1, 7]: 43.3 µM; IC50 (MDBK line; [8]): 43.6 µM
CCCc1c(C)nc(Nc2nc(C)c3cccc(C)c3n2)[nH]c1=O [12625 + TFA]	34.27	30.45	38.10	21.2	0.80	17	
Cc1ccc2c(CN3CCN(Cc4ccc5c(c4)OCO5)CC3)cc(=O)oc2c1C [AD4-10181]							ICW Screen (EGFR; Table 11, % Inhibition of EGF dependent EGFR phosphorylation in A431 cells, compound 125 μM in assay): 34.604; IC50 ([1]; Homo sapiens, A-431, 72 h, Table 11, first of x/y(ratio): A431, unit not printed (doses in μM), read-out: MTT Screen (first value)): 2.61 µM; IC50 (MDBK line; Bos taurus, MDBK, Table 11, second of x/y(ratio): MDBK, unit not printed (doses in μM), read-out: MTT Screen (second value)): 16 µM

Continued, in another order:

ICW Avg (EGFR)	ICW 1 (EGFR)	ICW 2 (EGFR)	IC50 [1, 5] [µM]	MTT Assay IC50(A431/MDBK): ratio in parentheses [1]	Structure (SMILES)	IC50 (MDBK line; [6]) [µM]	further results
29.16	24.41	33.91	21.8	0.84	Cc1ccc2nc(Nc3nc(CSc4nc5ccccc5s4)cc(=O)[nH]3)nc(C)c2c1 [compound 11592]	18.3	
59.32	51.74	66.90	24.7		Cc1ccc2c(C)nc(Nc3nc(C(C)C)cc(=O)[nH]3)nc2c1 [compound 11472]	19.4	
26.32	21.30	31.34	20.8	0.55	CCCc1c[nH]c(Nc2nc(C)c3ccccc3n2)nc1=O [compound 12622]	11.5	
37.11	48.00	26.22	6.41	0.84	FC(F)(F)c1cc(C(F)(F)F)nc(Nc2nc(-c3ccccc3)c3cc(Cl)ccc3n2)n1 [compound 11449]	5.4	
65.68	62.56	68.79	19.6		Cc1cc(C)nc(Nc2nc(N)c3ccccc3n2)n1 [compound 11829]	16.2	
35.54	33.74	37.33	5.84	0.94	COc1ccc2nc(Nc3nc(C)c(CCC(C)C)c(=O)[nH]3)nc(C)c2c1 [compound 11456]	5.48	
77.32	77.14	77.49	14.6	3.19	CCc1ccc2nc(Nc3nc(C)c(CCC(C)C)c(=O)[nH]3)nc(C)c2c1 [compound 11462]	46.6	
89.48	89.93	89.02		1.63	CCOC(=O)c1c(N)nc(Nc2nc(C)c3cc(C)ccc3n2)nc1-c1ccccc1 [compound 12681]		IC50 [1, 9]: 15.6 µM; IC50 (MDBK line; MDBK cells, second value of cell, read-out: MTT Assay IC50(A431/MDBK): MDBK): 25.4 µM
28.01	28.35	27.66	39.1	0.99	CCc1ccc2nc(Nc3nc(C)c4c(n3)CCCC4)nc(C)c2c1 [compound 12213]	38.6	
37.95	50.14	25.76	15.6		CCOc1ccc2nc(Nc3nc(=O)c(Cc4ccc(C)cc4)c(C)[nH]3)nc(C)c2c1 [compound 11442]	118	
56.84	51.90	61.77	14.7		CCOC(=O)c1c(N)nc(Nc2nc(C)c3cc(C)ccc3n2)nc1-c1ccccc1 [compound 11812]	31.6	
